In patent publication US11104664B2, “4,5,6-trisubstituted indazole derivatives, and preparation method and pharmaceutical use thereof” (SHANGHAI HAIYAN PHARMACEUTICAL TECHNOLOGY CO., LTD., priority 2016, dated 2021):

Tests used:
[1] = target: Recombinant PRC2 (EZH2-Y641F) (Homo sapiens (Human), UniProt Q15910, Y641F); assay: In vitro methyltransferase activity assay (LANCE Ultra); type: biochemical; conditions: for IC50: 2.5 μM SAM/250 nM H3(1-50)K27me1, 3 hours, room temperature; for inhibitory activity against the enzyme (in words): SAR comment on Table 1, reduced relative to comparator compounds (P-7, P-13/14)
Sequence of Recombinant PRC2 (EZH2-Y641F) (Q15910 whole entry Y641F): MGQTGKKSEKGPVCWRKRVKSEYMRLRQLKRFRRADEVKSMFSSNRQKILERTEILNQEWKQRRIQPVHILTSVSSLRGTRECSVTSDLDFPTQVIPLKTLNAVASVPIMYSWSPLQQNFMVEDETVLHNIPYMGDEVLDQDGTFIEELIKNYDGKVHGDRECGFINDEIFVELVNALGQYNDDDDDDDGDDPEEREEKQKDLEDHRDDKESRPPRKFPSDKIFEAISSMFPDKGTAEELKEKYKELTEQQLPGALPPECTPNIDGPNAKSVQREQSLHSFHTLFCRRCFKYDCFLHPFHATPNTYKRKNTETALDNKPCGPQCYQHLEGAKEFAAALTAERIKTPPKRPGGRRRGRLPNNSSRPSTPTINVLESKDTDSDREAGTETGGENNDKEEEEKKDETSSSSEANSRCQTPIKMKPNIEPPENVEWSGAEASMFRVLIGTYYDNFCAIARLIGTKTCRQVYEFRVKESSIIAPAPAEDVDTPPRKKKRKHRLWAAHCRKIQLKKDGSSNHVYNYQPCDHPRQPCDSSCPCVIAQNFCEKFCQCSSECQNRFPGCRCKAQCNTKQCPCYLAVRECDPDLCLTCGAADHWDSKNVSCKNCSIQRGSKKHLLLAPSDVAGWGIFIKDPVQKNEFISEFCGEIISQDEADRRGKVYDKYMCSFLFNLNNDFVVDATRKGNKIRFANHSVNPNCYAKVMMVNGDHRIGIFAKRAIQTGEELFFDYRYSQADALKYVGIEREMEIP
Sequence of Recombinant PRC2 (EZH2-Y641F) (O75530 whole entry partner): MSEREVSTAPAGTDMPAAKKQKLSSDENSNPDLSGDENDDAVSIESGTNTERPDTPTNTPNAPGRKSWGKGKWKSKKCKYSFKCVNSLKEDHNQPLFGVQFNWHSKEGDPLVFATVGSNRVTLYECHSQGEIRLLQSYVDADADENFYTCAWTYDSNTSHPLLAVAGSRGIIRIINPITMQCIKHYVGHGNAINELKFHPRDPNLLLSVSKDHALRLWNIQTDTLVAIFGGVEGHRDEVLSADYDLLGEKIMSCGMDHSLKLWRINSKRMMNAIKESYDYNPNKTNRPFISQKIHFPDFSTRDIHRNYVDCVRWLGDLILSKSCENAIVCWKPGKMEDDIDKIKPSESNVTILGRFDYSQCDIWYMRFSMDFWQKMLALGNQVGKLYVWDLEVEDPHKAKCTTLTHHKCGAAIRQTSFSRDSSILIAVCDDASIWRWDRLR
Sequence of Recombinant PRC2 (EZH2-Y641F) (Q15022 whole entry partner): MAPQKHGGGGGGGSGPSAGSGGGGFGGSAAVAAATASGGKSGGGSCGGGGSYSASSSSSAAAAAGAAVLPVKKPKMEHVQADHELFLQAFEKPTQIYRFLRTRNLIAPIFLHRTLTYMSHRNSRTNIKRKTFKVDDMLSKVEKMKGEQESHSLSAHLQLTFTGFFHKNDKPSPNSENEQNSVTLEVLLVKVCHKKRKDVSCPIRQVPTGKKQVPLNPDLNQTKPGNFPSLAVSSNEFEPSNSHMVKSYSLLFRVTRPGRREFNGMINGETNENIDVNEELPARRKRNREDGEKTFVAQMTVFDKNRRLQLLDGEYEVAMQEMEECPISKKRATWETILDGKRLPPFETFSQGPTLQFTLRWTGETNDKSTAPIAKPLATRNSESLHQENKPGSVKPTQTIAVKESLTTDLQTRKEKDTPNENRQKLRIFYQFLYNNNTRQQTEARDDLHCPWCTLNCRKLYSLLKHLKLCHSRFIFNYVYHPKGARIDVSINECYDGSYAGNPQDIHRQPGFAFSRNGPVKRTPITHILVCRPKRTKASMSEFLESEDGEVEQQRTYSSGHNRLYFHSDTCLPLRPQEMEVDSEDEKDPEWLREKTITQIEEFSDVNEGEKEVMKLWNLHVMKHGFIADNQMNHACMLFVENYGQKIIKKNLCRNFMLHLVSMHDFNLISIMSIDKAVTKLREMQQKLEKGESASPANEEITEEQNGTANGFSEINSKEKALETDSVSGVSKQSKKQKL
Sequence of Recombinant PRC2 (EZH2-Y641F) (Q09028 whole entry partner): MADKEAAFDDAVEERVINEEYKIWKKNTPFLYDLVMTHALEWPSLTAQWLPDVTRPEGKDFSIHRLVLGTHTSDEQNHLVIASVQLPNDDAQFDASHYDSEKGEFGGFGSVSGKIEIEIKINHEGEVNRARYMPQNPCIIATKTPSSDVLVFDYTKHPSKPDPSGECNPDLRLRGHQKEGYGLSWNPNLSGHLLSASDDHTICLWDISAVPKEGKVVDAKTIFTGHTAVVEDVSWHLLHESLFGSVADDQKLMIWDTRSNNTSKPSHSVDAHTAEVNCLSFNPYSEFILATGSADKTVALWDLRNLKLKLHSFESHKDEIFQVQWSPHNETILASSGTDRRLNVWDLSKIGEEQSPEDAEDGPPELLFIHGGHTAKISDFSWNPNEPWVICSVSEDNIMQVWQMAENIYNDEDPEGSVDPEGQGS
Sequence of Recombinant PRC2 (EZH2-Y641F) (Q6ZN18 whole entry partner): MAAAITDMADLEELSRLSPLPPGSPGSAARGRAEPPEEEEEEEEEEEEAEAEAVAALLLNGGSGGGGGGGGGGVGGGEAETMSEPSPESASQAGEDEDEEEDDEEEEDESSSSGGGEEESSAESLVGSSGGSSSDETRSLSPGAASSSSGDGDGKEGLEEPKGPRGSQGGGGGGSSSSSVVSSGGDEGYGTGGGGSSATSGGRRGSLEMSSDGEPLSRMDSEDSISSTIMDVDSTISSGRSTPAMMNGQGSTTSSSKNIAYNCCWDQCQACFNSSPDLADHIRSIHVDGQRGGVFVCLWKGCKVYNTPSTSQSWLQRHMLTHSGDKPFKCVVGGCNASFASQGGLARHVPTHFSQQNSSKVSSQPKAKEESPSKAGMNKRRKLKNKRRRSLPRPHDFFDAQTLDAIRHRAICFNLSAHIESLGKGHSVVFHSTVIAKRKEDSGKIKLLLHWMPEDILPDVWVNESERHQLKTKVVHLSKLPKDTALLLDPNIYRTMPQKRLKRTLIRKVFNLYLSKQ
Experimental: Recombinant PRC2 (EZH2-Y641F) was purchased from Active motif, S-adenosyl-methionine (SAM) and Poly-L-lysine (PLL) were purchased from Sigma-Aldrich, and H3(1-50)K27me1 peptide was purchased from Cisbio. LANCEUltrasystem (Perkinelmer) was used for detection system. In the enzyme activity test, compounds to be tested were diluted by 8 gradient points in a ratio of 1:3, and added into each well in a reaction plate, and 100 ng recombinase was added, followed by a buffer [20 mM Tris pH8.5, 2 mM MgCl2, 0.01% Tween-20, 1 mM TCEP] containing 2.5 μM SAM/250 nM H3 (1-50)K27me1 premixtures. Enzymatic reaction thus began at room temperature. After reacted for 3 hours, a detection solution premixed with PLL, detection antibody and Ulight was added, and reacted for 1 hour at room temperature. The fluorescence value was then read on a Tecan infinite pro. IC50 was calculated by fitting in a four-factor model in the XLfit software.

Pfeiffer cells = assay: Cell proliferation assay (Cell counting kit-8, 6 days); type: cell-based; conditions: Pfeiffer (CRL-2632), 6 days culture
Experimental: The used cell lines Pfeiffer (CRL-2632), suDHL-6 (CRL-2959) and suDHL-10 (CRL-2963) were obtained from American Type Culture Collection (ATCC). All cell lines were cultured in RPMI-1640 medium (Gibco) containing 10% fetal bovine serum (Gibco). The cultured cells were harvested by centrifugation and the cell density was determined using a CounterStar cell counter. Appropriate number of cells were plated in a 96-well culture plate and incubated overnight. Compounds to be tested were diluted by 8 gradient points in a ratio of 1:3 and added into corresponding wells. After continuing to culture for 6 days, the number of viable cells was measured with Cell counting kit-8, and the absorbance value was read on Tecan infinite pro. The IC50 was calculated by fitting in a four-parameter model in the XLfit software.

7-(ethyl(tetrahydro-2H-pyran-4-yl)amino)-N-((4-methoxy-6-methyl-2-oxo-1,2-dihydropyridin-3-yl)methyl)-1,6-dimethyl-1H-imidazole-5-carboxamide [P-4]
IC50 [1]: 502 nM
inhibitory activity against the enzyme (in words) [1]: significantly reduced

CCN(c1cc(C(=O)NCc2c(C)cc(C)[nH]c2=O)c(C)c2c1cnn2C)C1CCOCC1 [D1, N-((4,6-dimethyl-2-oxo-1,2-dihydropyridin-3-yl)methyl)-4-(ethyl(tetrahydro-2H-pyran-4-yl)amino)-1,7-dimethyl-1H-indazole-6-carboxamide, reference compound]
IC50 [1]: > 10000 nM
IC50 (Pfeiffer cells; Homo sapiens, 144 h): > 10000 nM

CCN(c1c(C)c(C(=O)NCc2c(OC)cc(C)[nH]c2=O)cc2c1cnn2C)C1CCOCC1 [P-1, 4-(ethyl (tetrahydro-2H-pyran-4-yl)amino)-N-((4-methoxy-6-methyl-2-oxo-1,2-dihydropyridin-3-yl)methyl)-1,5-dimethyl-1H-indazole-6-carboxamide]
IC50 [1]: 25 nM
IC50 (Pfeiffer cells; Homo sapiens, 144 h): 93 nM

CCN(c1c(C)c(C(=O)NCc2c(OC)cc(C)[nH]c2=O)cc2[nH]ncc12)C1CCOCC1 [P-2, 4-(ethyl(tetrahydro-2H-pyran-4-yl)amino)-N-((4-methoxy-6-methyl-2-oxo-1,2-dihydropyridin-3-yl)methyl)-5-methyl-1H-indazole-6-carboxamide]
IC50 [1]: 24 nM

CCN(c1c(C)c(C(=O)NCc2c(OC)cc(C)[nH]c2=O)cc2cn[nH]c12)C1CCOCC1 [P-3, 7-(ethyl(tetrahydro-2H-pyran-4-yl)amino)-N-((4-methoxy-6-methyl-2-oxo-1,2-dihydropyridin-3-yl)methyl)-6-methyl-1H-imidazole-5-carboxamide]
IC50 [1]: 154 nM
inhibitory activity against the enzyme (in words) [1]: significantly reduced

CCN(c1c(C)c(C(=O)NCc2c(OC)cc(C)[nH]c2=O)cc2c1cnn2C(F)F)C1CCOCC1 [P-5, 1-(difluoromethyl)-4-(ethyl(tetrahydro-2H-pyran-4-yl)amino)-N-((4-methoxy-6-methyl-2-oxo-1,2-dihydropyridin-3-yl)methyl)-5-methyl-1H-indazole-6-carboxamide]
IC50 (Pfeiffer cells; Homo sapiens, 144 h): 71 nM

CCN(c1c(C)c(C(=O)NCc2c(C)cc(C)[nH]c2=O)cc2c1cnn2C)C1CCOCC1 [P-7, N-((4,6-dimethyl-2-oxo-1,2-dihydropyridin-3-yl)methyl)-4-(ethyl(tetrahydro-2H-pyran-4-yl)amino)-1,5-dimethyl-1H-indazole-6-carboxamide]
IC50 (Pfeiffer cells; Homo sapiens, 144 h): 158 nM

CCN(c1c(C)c(C(=O)NCc2c(C)cc(C)[nH]c2=O)cc2c1cnn2C)C1CCN(CC(F)(F)F)CC1 [P-8, N-((4,6-dimethyl-2-oxo-1,2-dihydropyridin-3-yl)methyl)-4-(ethyl(1-(2,2,2-trifluoroethyl)piperidin-4-yl)amino)-1,5-dimethyl-1H-indazole-6-carboxamide]
IC50 [1]: 53 nM

CCN(c1c(C)c(C(=O)NCc2c(C)cc(C)[nH]c2=O)cc2c1cnn2C)C1CCC(N(C)CCOC)CC1 (stereo not shown) [P-9, N-((4,6-dimethyl-2-oxo-1,2-dihydropyridin-3-yl)methyl)-4-(ethyl (4-((2-methoxyethyl)(methyl)amino)cyclohexyl)amino)-1,5-dimethyl-1H-indazole-6-carboxamide]
IC50 [1]: 9 nM
IC50 (Pfeiffer cells; Homo sapiens, 144 h): 32 nM

CCN(c1c(C)c(C(=O)NCc2c(C)cc(C)[nH]c2=O)cc2c1cnn2C(F)F)C1CCOCC1 [P-10, 1-(difluoromethyl)-N-((4,6-dimethyl-2-oxo-1,2-dihydropyridin-3-yl)methyl)-4-(ethyl(tetrahydro-2H-pyran-4-yl)amino)-5-methyl-1H-indazole-6-carboxamide]
IC50 [1]: 61 nM
IC50 (Pfeiffer cells; Homo sapiens, 144 h): 141 nM

CCN(c1c(C)c(C(=O)NCc2c(OC)cc(C)[nH]c2=O)cc2c1cnn2C)C1CCN(CC(F)(F)F)CC1 [P-11, 4-(ethyl(1-(2,2,2-trifluoroethyl)piperidin-4-yl)amino)-N-((4-methoxy-6-methyl-2-oxo-1,2-dihydropyridin-3-yl)methyl)-1,5-dimethyl-1H-indazole-6-carboxamide]
IC50 [1]: 13 nM
IC50 (Pfeiffer cells; Homo sapiens, 144 h): 292 nM

CCN(c1c(C)c(C(=O)NCc2c(OC)cc(C)[nH]c2=O)cc2nn(C)cc12)C1CCN(CC(F)(F)F)CC1 [P-12, 4-(ethyl(1-(2,2,2-trifluoroethyl)piperidin-4-yl)amino)-N-((4-methoxy-6-methyl-2-oxo-1,2-dihydropyridin-3-yl)methyl)-2,5-dimethyl-2H-indazole-6-carboxamide]
IC50 [1]: 117 nM

CCN(c1c(C)c(C(=O)NCc2c(C)cc(C)[nH]c2=O)cc2c1cnn2C)[C@H]1CC[C@@H](N(C)C)CC1 [P-13, N-((4,6-dimethyl-2-oxo-1,2-dihydropyridin-3-yl)methyl)-4-(((1S, 4S)-4-(dimethylamino)cyclohexyl) (ethyl)amino)-1,5-dimethyl-1H-indazole-6-carboxamide]
IC50 [1]: 23 nM

CCN(c1c(C)c(C(=O)NCc2c(C)cc(C)[nH]c2=O)cc2c1cnn2C)[C@H]1CC[C@H](N(C)C)CC1 [P-14, N-((4,6-dimethyl-2-oxo-1,2-dihydropyridin-3-yl)methyl)-4-(((1R, 4R)-4-(dimethylamino)cyclohexyl)(ethyl)amino)-1,5-dimethyl-1H-indazole-6-carboxamide]
IC50 [1]: 5 nM
IC50 (Pfeiffer cells): 212 nM

CCN(c1c(C)c(C(=O)NCc2c(OC)cc(C)[nH]c2=O)cc2c1cnn2C)C1CCC(N(C)CCOC)CC1 (stereo not shown) [P-15, 4-(ethyl(4-((2-methoxyethyl) (methyl)amino)cyclohexyl)amino)-N-((4-methoxy-6-methyl-2-oxo-1,2-dihydropyridin-3-yl)methyl)-1,5-dimethyl-1H-indazole-6-carb oxamide]
IC50 [1]: 7 nM
IC50 (Pfeiffer cells; Homo sapiens, 144 h): 76 nM

CCc1c(C(=O)NCc2c(OC)cc(C)[nH]c2=O)cc2c(cnn2C)c1N(CC)C1CCOCC1 [P-16, 5-ethyl-4-(ethyl(tetrahydro-2H-pyran-4-yl)amino)-N-((4-methoxy-6-methyl-2-oxo-1,2-dihydropyridin-3-yl)methyl)-1-methyl-1H-indazole-6-carboxamide]
IC50 [1]: 8 nM
IC50 (Pfeiffer cells; Homo sapiens, 144 h): 7 nM

CCN(c1c(C)c(C(=O)NCc2c(C)cc(C)[nH]c2=O)cc2c1cnn2C)C1CCN(C2CCOCC2)CC1 [P-33]
IC50 [1]: 37 nM

CCN(c1c(C)c(C(=O)NCc2c(C)cc(C)[nH]c2=O)cc2c1cnn2CC1CCOC1)C1CCOCC1 (stereo not shown) [P-40]
IC50 (Pfeiffer cells; Homo sapiens, 144 h): 268 nM

CCN(c1c(C)c(C(=O)NCc2c(C)cc(C)[nH]c2=O)cc2c1c(C)nn2C)C1CCC(N(C)C)CC1 (stereo not shown) [P-42]
IC50 [1]: 253 nM
inhibitory activity against the enzyme (in words) [1]: greatly reduced

CCN(c1c(C)c(C(=O)NCc2c(C)cc(C)[nH]c2=O)cc2c1cnn2C)C1CCC(N(C)CC(F)F)CC1 (stereo not shown) [P-45, 4-((4-((2,2-difluoroethyl) (methyl)amino)cyclohexyl)(ethyl)amino)-N-((4,6-dimethyl-2-oxo-1,2-dihydropyridin-3-yl)methyl)-1,5-dimethyl-1H-indazole-6-carboxamide]
IC50 [1]: 27 nM

CCN(c1c(C)c(C(=O)NCc2c(C)cc(C)[nH]c2=O)cc2c1cnn2C)C1CCC(C)(N)CC1 (stereo not shown) [P-46]
IC50 [1]: 53 nM

CCN(c1c(C)c(C(=O)NCc2c(OC)cc(C)[nH]c2=O)cc2nn(C)cc12)C1CCOCC1 [P-50, 4-(ethyl(tetrahydro-2H-pyran-4-yl)amino)-N-((4-methoxy-6-methyl-2-oxo-1,2-dihydropyridin-3-yl)methyl)-2,5dimethyl-2H-indazole-6-carboxamide]
IC50 [1]: 148 nM
inhibitory activity against the enzyme (in words) [1]: significantly reduced
